Reference: patent US11434237B2, “Selective ligands for tau aggregates” (KARIN & STEN MORTSTEDT CBD SOLUTIONS AB, priority 2017, dated 2022)
Entries after “also recorded” stand apart in the source; their conditions may differ.

Columns and labels:
[1] = target: T1, Aβ aggregates (Homo sapiens, UniProt P05067); assay: Compound and antibody 4G8 double staining of AD brain tissue sections; assay type: binding; details: for Overlap between Fluorescence from tested compound and fluorescence from 4G8 observed / Fluorescence from tested compound observed / Staining of / selectivity for Aβ and tau aggregates in AD brain sections: 100 nM compound; for Overlap between Fluorescence from tested compound and fluorescence from 4G8 observed / Fluorescence from tested compound observed: human AD brain tissue sections; for Overlap between Fluorescence from tested compound and fluorescence from 4G8 observed: Aβ antibody 4G8; for Fluorescence from tested compound observed: double staining with Aβ antibody 4G8; for Fluorescence from 4G8 observed: signal of Aβ antibody 4G8 in the section stained with 100 nM of the compound; for Staining of / selectivity for Aβ and tau aggregates in AD brain sections: stained in combination with 4G8
T1 construct: compound and antibody double staining of Aβ or tau aggregates; from tissue; host or cells: human AD brain tissue sections (20 μm)
Experimental: (§1) To achieve compound and antibody double staining of Aβ or tau aggregates, tissue sections (20 μm) from human AD brain were fixed in 70% EtOH at 4° C. for 3 min, rehydrated in distilled water and then incubated in PBS for 30 min. Sections were blocked and permeabilized in PBS with 5% normal goat serum and 0.1% triton X-100 (blocking buffer) for 1 h at room temperature (RT). Antibody 4G8 (Biolegend, San Diego, Calif., USA) reactive to Aβ, and AT100 (Thermo Fisher Scientific, Waltham, Mass., USA) directed against tau phosphorylated at […] (3) were diluted 1:500 and 1:1000, respectively, in blocking buffer and added to the sections. After 16 h incubation at 4° C. unbound antibody was removed by washing in PBS with 0.1% triton X-100 (PBS-T) 3×10 min. To visualize antibody binding to Aβ or tau aggregates sections were incubated with goat anti-mouse secondary antibody labelled with Alexa 647 (Thermo Fisher Scientific). The antibody was diluted 1:200 in blocking buffer and after 1 h incubation at RT sections were washed in PBS 3×10 min. Example Compound 3a, Example Compound 3b, Example Compound 3c, Example Compound 3d, Example Compound 3e, Example Compound 3f, Example Compound 3g, Example Compound 3h, Example Compound 3i, Example Compound 3j, Example Compound 3k, Example Compound 3m, Example Compound 3n, Example Compound 3o, Example Compound 3p, Example Compound 3q, Example Compound 3r, Example Compound 3s, Example Compound 3t, Example Compound 3u, Example Compound 8a, Comparative Example 1, Comparative Example 2, Comparative Example 3 and Comparative Example 4 were dissolved in DMSO to a concentration of 1.5 mM and then further diluted in PBS to a final concentration of 100 nM compound prior to staining. The tissue sections were then stained for 30 min at RT with these freshly prepared solutions containing 100 nM of the respective compound in PBS. After three washes in PBS the sections were mounted in Dako mounting medium for fluorescence (Dako Cytomation, Glostrup, Denmark) and allowed to dry overnight before analysis. Fluorescence images were collected using an inverted LSM 780 confocal microscope (Carl Zeiss, Oberkochen, Germany) with the following excitation/emission wavelengths optimized for each compound: 458/484-600 (Comparative Example 1, Comparative Example 3), 561/569-648 (Example Compound 3a, Example Compound 3b, Example Compound 3c, Example Compound 3d, Example Compound 3e, Example Compound 3f, Example Compound 3g, Example Compound 3h, Example Compound 3i, Example Compound 3j, Example Compound 3k, Example Compound 3m, Example Compound 3n, Example Compound 3o, Example Compound 3p, Example Compound 3q, Example Compound 3r, Example Compound 3s, Example Compound 3t, Example Compound 3u, Example Compound 8a, Comparative Example 2 and Comparative Example 4) and 633/638-755 (Alexa 647). To visualize autofluorescent lipofuscin excitation/emission wavelengths 405/410-480 or 405/410-514 were used.

[2] = target: T2, tau aggregates (Homo sapiens, UniProt P10636); assay: Compound and antibody AT100 double staining of AD brain tissue sections; assay type: binding; details: for Labelling of immune-positive NFTs and dystrophic neurites / Fluorescence from tested compound observed / Overlap between Fluorescence from tested compound and fluorescence from AT-100 observed: 100 nM compound; for Labelling of immune-positive NFTs and dystrophic neurites: AT100 co-staining, AD brain sections; for Fluorescence from tested compound observed / Overlap between Fluorescence from tested compound and fluorescence from AT-100 observed: human AD brain tissue sections; for Fluorescence from tested compound observed: double staining with tau antibody AT-100; for Overlap between Fluorescence from tested compound and fluorescence from AT-100 observed: tau antibody AT-100; for Fluorescence from AT-100 observed: signal of tau antibody AT-100 in the section stained with 100 nM of the compound
T2 construct: tissue sections (20 μm) from human AD brain; from tissue; host or cells: human AD brain tissue sections (20 μm)
Experimental: as §1

T1 sequence (P05067 672-713 limits assumed): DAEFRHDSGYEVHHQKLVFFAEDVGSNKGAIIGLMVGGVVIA
T2 sequence (P10636 1-441 isoform P10636-8): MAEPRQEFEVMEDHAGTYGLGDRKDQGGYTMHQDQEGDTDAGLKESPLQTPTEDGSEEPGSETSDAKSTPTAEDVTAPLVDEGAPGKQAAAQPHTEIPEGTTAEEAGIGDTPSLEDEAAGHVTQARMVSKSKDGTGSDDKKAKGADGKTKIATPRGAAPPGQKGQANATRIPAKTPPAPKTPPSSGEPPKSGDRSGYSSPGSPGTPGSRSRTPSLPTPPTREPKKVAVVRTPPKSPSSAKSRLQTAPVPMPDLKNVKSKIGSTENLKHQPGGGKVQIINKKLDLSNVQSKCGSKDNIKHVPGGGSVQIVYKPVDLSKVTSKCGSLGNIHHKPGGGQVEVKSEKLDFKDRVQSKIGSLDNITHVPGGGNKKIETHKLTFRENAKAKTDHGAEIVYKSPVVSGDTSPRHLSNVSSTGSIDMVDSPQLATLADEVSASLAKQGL

| Overlap between Fluorescence from tested compound and fluorescence from 4G8 observed [1] | Fluorescence from tested compound observed [1] | Fluorescence from 4G8 observed [1] | Fluorescence from tested compound observed [2] | Overlap between Fluorescence from tested compound and fluorescence from AT-100 observed [2] | Fluorescence from AT-100 observed [2] | Structure (SMILES) | Labelling of immune-positive NFTs and dystrophic neurites [2] | Staining of / selectivity for Aβ and tau aggregates in AD brain sections [1] |
| --- | --- | --- | --- | --- | --- | --- | --- | --- |
| no correlation and no | yes | yes | yes | yes | yes | CC[n+]1c(/C=C/c2cnc(-c3ccc(C(=O)OC)s3)s2)sc2ccccc21.[I-] [Example Compound 3j] | labelled both immune-positive NFTs and dystrophic neurites | – |
| no correlation and no | yes | yes | yes | yes | yes | CC[n+]1c(/C=C/c2ccc(-c3ccc4ncsc4c3)s2)sc2ccccc21.[I-] [Example Compound 3s] | labelled both immune-positive NFTs and dystrophic neurites | – |
| no correlation and no | yes | yes | yes | yes | yes | COC(=O)c1ccc(-c2ccc(/C=C/c3sc4ccccc4[n+]3C)s2)s1.[I-] [Example Compound 3f] | labelled both immune-positive NFTs and dystrophic neurites | – |
| no correlation and no | yes | yes | yes | yes | yes | CC[n+]1c(/C=C/c2ccc(-c3cccs3)s2)sc2ccccc21 [Example Compound 3c] | labelled both immune-positive NFTs and dystrophic neurites | – |
| no correlation and no | yes | yes | yes | yes | yes | CC[n+]1c(/C=C/c2ccc(-c3ccc(C(=O)OC)cn3)s2)sc2ccccc21.[I-] [Example Compound 3k] | labelled both immune-positive NFTs and dystrophic neurites | – |

More lines, now with the values behind:

| Structure (SMILES) | Overlap between Fluorescence from tested compound and fluorescence from 4G8 observed [1] | Fluorescence from tested compound observed [1] | Fluorescence from 4G8 observed [1] | Fluorescence from tested compound observed [2] | Overlap between Fluorescence from tested compound and fluorescence from AT-100 observed [2] | Fluorescence from AT-100 observed [2] | Labelling of immune-positive NFTs and dystrophic neurites [2] | Staining of / selectivity for Aβ and tau aggregates in AD brain sections [1] |
| --- | --- | --- | --- | --- | --- | --- | --- | --- |
| CC[CH-][n+]1c(/C=C/c2ccc(-c3ccc(C(=O)OC)s3)s2)sc2ccccc21 [Example Compound 3g] | no correlation and no | yes | yes | yes | yes | yes | labelled both immune-positive NFTs and dystrophic neurites | – |
| CC[n+]1c(/C=C/c2ccc(-c3ccc(C(=O)OC)o3)o2)sc2ccccc21.[I-] [Example Compound 3i] | no correlation and no | yes | yes | yes | yes | yes | labelled both immune-positive NFTs and dystrophic neurites | – |
| CC[n+]1c(/C=C/c2ccc(-c3ccc(C#N)s3)s2)sc2ccccc21.[I-] [Example Compound 3t] | no correlation and no | yes | yes | yes | yes | yes | labelled both immune-positive NFTs and dystrophic neurites | – |
| CCn1c(/C=C/c2ccc(-c3ccc(C(=O)OC)s3)s2)nc2ccccc21 [Comparative Example 1] | yes | Yes | yes | – | – | – | – | staining towards immune-positive Aβ aggregates, as well as some weak staining of tau-like pathology; also recorded: selectivity for Aβ |
| CC[n+]1c(/C=C/c2ccc(-c3ccc(C(=O)OC)s3)s2)sc2cc(OC)ccc21.[I-] [Example Compound 3e] | no correlation and no | yes | yes | yes | yes | yes | labelled both immune-positive NFTs and dystrophic neurites | – |
| COC(=O)c1csc(-c2ccc(-c3ccc(-c4nc5ccccc5s4)s3)s2)c1 [Comparative Example 4] | – | no | yes | – | – | – | – | did not display any substantial staining; also recorded: no staining |
| CC[n+]1c(/C=C/c2ccc(-c3ccc4nsnc4c3)s2)sc2ccccc21 [Example Compound 3n] | no correlation and no | yes | yes | yes | yes | yes | labelled both immune-positive NFTs and dystrophic neurites | – |
| CC[n+]1c(/C=C/c2ccc(-c3ccc(C(=O)OC)s3)s2)sc2ccc(O)cc21.[I-] [Example Compound 3u] | no correlation and no | yes | yes | yes | yes | yes | labelled both immune-positive NFTs and dystrophic neurites | – |
| COC(=O)Cc1cc(-c2ccc(-c3nc4ccccc4s3)s2)sc1-c1cc(C(=O)OC)cs1 [Comparative Example 2] | – | no | yes | – | – | – | – | did not display any substantial staining; also recorded: no staining |
| O=C(O)Cc1cc(-c2ccc(-c3nc4ccccc4s3)s2)sc1-c1cc(C(=O)O)cs1 [Comparative Example 3] | yes | yes | yes | – | – | – | – | staining of both Aβ and tau aggregates; also recorded: no selectivity |
